The values that follow are results of earlier work, collected in paper PMC6714113 (Research in Pharmaceutical Sciences, 2019).

As usually defined, the IC50 is the concentration at which inhibition is half-maximal.

For this data set the following is noted: read-out: IC50 (cytotoxicity).

For the compound `N[C@@H](Cc1ccc(B(O)O)cc1)C(=O)O` [BPA, boronophenylalanine], the IC50 is > 4 mM.
